In patent publication US10478430B2, “Compounds useful as inhibitors of ATR kinase and combination therapies thereof” (Vertex Pharmaceuticals Incorporated, priority 2012, dated 2019):
“Also recorded” adds a separate entry of the source.

Experiments:
Assay type in all cases: cell-based
[1] = tested on: H23, U2OS, HCT116, MCF7, HT144, HT29 and PSN1 cancer cells; experiment: MTS cell density assay, synergy of VE-822 with Rucaparib across a cancer cell line panel; conditions: seven cancer cell lines, VE-822 + Rucaparib, 96 h, in vitro
Description: (§1) H23 non-small cell lung cancer (a), U2OS osteosarcoma (b), HCT116 colorectal cancer (c), MCF7 breast cancer (d), HT144 melanoma (e), HT29 colorectal cancer (f), and PSN1 pancreatic cancer (g) cells were treated in triplicate with the indicated concentrations of VE-822 and Rucaparib for 96h. Cell density was measured by 3-(4,5-dimethylthiazol-2-yl)-5-(3-carboxymethoxyphenyl)-2-(4-sulfophenyl)-2H-tetrazolium (MTS) assay, and synergy was analyzed at the 95% confidence interval with MacSynergy II software. A range of synergy was observed from strong (a) to negligible (g).
(§2) FIG. 4. H23 non-small cell lung cancer (a), U2OS osteosarcoma (b), HCT116 colorectal cancer (c), MCF7 breast cancer (d), HT144 melanoma (e), HT29 colorectal cancer (f) and PSN1 pancreatic cancer (g) cells were treated in triplicate with the indicated concentrations of VE-822 and Rucaparib for 96 h, cell density was measured by 3-(4,5-dimethylthiazol-2-yl)-5-(3-carboxymethoxyphenyl)-2-(4-sulfophenyl)-2H-tetrazolium (MTS) assay and synergy was analyzed at the 95% confidence interval with MacSynergy II software. A range of synergy was observed from strong (a) to negligible (g). The synergy plots can be analyzed using methods described in Reaper et al, “Selective Killing of ATM- or p53-deficient cancer cells through inhibition of ATR”, Nat. Chem. Bio. 2011, Apr. 13; 9 (7):428-430.

[2] = tested on: H23 non-small cell lung cancer cells; experiment: MTS cell density assay, synergy of VE-822 with Rucaparib (MacSynergy II); conditions: VE-822 + Rucaparib, 96 h, 95% confidence interval
Description: as §1
(§3) H23 non-small cell lung cancer (a) and HFL1 normal lung (b) cells were treated in triplicate with the indicated concentrations of VE-822 and Rucaparib for 96h. Cell density was measured by 3-(4,5-dimethylthiazol-2-yl)-5-(3-carboxymethoxyphenyl)-2-(4-sulfophenyl)-2H-tetrazolium (MTS) assay, and synergy was analyzed at the 95% confidence interval with MacSynergy II software.
FIG. 4. […] The synergy plots can be analyzed using methods described in Reaper et al, “Selective Killing of ATM- or p53-deficient cancer cells through inhibition of ATR”, Nat. […]
FIG. 5. […] The synergy plots can be analyzed using methods described in Reaper et al, “Selective Killing of ATM- or p53-deficient cancer cells through inhibition of ATR”, Nat. […]

[3] = tested on: PSN1 pancreatic cancer cells; experiment: as above; conditions: VE-822 + Rucaparib, 96 h, 95% confidence interval
Description: as §1, §2

[4] = tested on: H23 non-small cell lung cancer and HFL1 normal lung cells; experiment: MTS cell density assay, triple combination of VE-822, Rucaparib and ionizing radiation; conditions: H23 versus HFL1 cells, with 2 Gy IR, 96 h, MacSynergy II modified for triple combination
Description: (§4) In FIG. 6A, H23 non-small cell lung cancer (a) and HFL1 normal lung (b) cells were treated in triplicate with the indicated concentrations of VE-822 and Rucaparib together with 2 gray (Gy) of IR. Cell density was measured after 96h by 3-(4,5-dimethylthiazol-2-yl)-5-(3-carboxymethoxyphenyl)-2-(4-sulfophenyl)-2H-tetrazolium (MTS) assay, and synergy was analyzed at the 95% confidence interval with MacSynergy II software modified for triple combination studies (Nguyen et al, PLOS One 5:9332). In FIG. 6B, H23 non-small cell lung cancer (a) and HFL1 normal lung (b) cells were treated in triplicate with the indicated concentrations of VE-822 and Rucaparib together with 80nM cisplatin. Cell density was measured after 96h by 3-(4,5-dimethylthiazol-2-yl)-5-(3-carboxymethoxyphenyl)-2-(4-sulfophenyl)-2H-tetrazolium (MTS) assay, and synergy was analyzed at the 95% confidence interval with MacSynergy II software modified for triple combination studies (Nguyen et al, PLOS One 5:9332).
FIG. 6a. […] The synergy plots can be analyzed using methods described in Reaper et al, “Selective Killing of ATM- or p53-deficient cancer cells through inhibition of ATR”, Nat. […]

[5] = tested on: HFL1 normal lung cells; experiment: MTS cell density assay, synergy of VE-822 with Rucaparib (MacSynergy II); conditions: VE-822 + Rucaparib, 96 h, 95% confidence interval
Description: as §3
FIG. 5. H23 non-small cell lung cancer (a) and HFL1 normal lung (b) cells were treated in triplicate with the indicated concentrations of VE-822 and Rucaparib for 96 h, cell density was measured by 3-(4,5-dimethylthiazol-2-yl)-5-(3-carboxymethoxyphenyl)-2-(4-sulfophenyl)-2H-tetrazolium (MTS) assay and synergy was analyzed at the 95% confidence interval with MacSynergy II software. The synergy plots can be analyzed using methods described in Reaper et al, “Selective Killing of ATM- or p53-deficient cancer cells through inhibition of ATR”, Nat. Chem. Bio. 2011, Apr. 13; 9 (7):428-430.

[6] = tested on: H23 non-small cell lung cancer and HFL1 normal lung cells; experiment: MTS cell density assay, triple combination of VE-822, Rucaparib and cisplatin; conditions: H23 versus HFL1 cells, with 80 nM cisplatin, 96 h, MacSynergy II modified for triple combination
Description: as §4
FIG. 6b. […] The synergy plots can be analyzed using methods described in Reaper et al, “Selective Killing of ATM- or p53-deficient cancer cells through inhibition of ATR”, Nat. […]

`CNCc1ccc(-c2cc(-c3nc(-c4ccc(S(=O)(=O)C(C)C)cc4)cnc3N)on2)cc1` [VE-822] was tested, and the “synergy with the PARP inhibitor Rucaparib across cancer cell lines” value [1] was “synergizes with the PARP inhibitor Rucaparib in many (but not all) cancer cell lines”, the “synergy with the PARP inhibitor Rucaparib” value [2] was “strong; also recorded: synergizes with the PARP inhibitor Rucaparib in cancer” and the “synergy with the PARP inhibitor Rucaparib” value [3] was “negligible”. For the same molecule, the “synergy of the combination of VE-822, Rucaparib and ionizing radiation” value [4] was “cancer-selective synergistic effects”, the “synergy with the PARP inhibitor Rucaparib” value [5] was “not normal cells” and the “synergy of the combination of VE-822, Rucaparib and cisplatin” value [6] was “cancer-selective synergistic effects”.
